The target in the experiment is SARS-CoV-2 3CLpro (Severe acute respiratory syndrome coronavirus 2, UniProt P0DTD1). The experiment is described as follows: biochemical. Type of experiment: biochemical. Further details: Replicate_1 / Replicate_2 / mean / mean (LOPAC_screen_w_protease): unit not given here. To be noted: for inhibition at 5 µM: 4 h; for mean (LOPAC screen with protease) / Replicate_1 (LOPAC screen with protease) / Replicate_2 (LOPAC screen with protease): primary screen at 5 µM.

[1] abbreviates: sheet LOPAC_screen_w_protease, mean of two replicates.
The mark [2] stands for this setting: sheet LOPAC_screen_w_protease, replicate 1.
[3] abbreviates: sheet LOPAC_screen_w_protease, replicate 2.
Setting [4] is: sheet LOPAC_screen_w_protease, LOPAC1280 primary screen with protease, 5 µM compound, mean of the two replicates.
The mark [5] stands for this setting: sheet LOPAC_screen_w_protease, LOPAC1280 primary screen with protease, 5 µM compound, replicate 1.
Setting [6] is: sheet LOPAC_screen_w_protease, LOPAC1280 primary screen with protease, 5 µM compound, replicate 2.
Setting [7] is: LOPAC1280 primary screen with protease, 5 µM compound, replicate 1, read-out: Replicate_1 (LOPAC_screen_w_protease).
[8] abbreviates: LOPAC1280 primary screen with protease, 5 µM compound, replicate 2, read-out: Replicate_2 (LOPAC_screen_w_protease).
The mark [9] stands for this setting: LOPAC1280 primary screen with protease, 5 µM compound, mean of the two replicates.
The mark [10] stands for this setting: LOPAC1280 primary screen with protease, 5 µM compound, replicate 1.
[11] abbreviates: LOPAC1280 primary screen with protease, 5 µM compound, replicate 2.
Where [12] appears, read: LOPAC1280 primary screen with protease, 5 µM compound, mean of two replicates.

Where a name gives a salt, the structure may show the parent alone. Read-outs that look alike come from different tables or passages of the source.

Regarding `CCN(CC)CCNC(=O)c1cc(S(C)(=O)=O)ccc1OC` [Tiapride hydrochloride], the inhibition at 5 µM runs as follows: (sheet LOPAC_screen_w_protease, LOPAC1280 at 5 µM, mean of two replicates, read-out: mean) 1.21%; (sheet LOPAC_screen_w_protease, LOPAC1280 at 5 µM, replicate 1, read-out: Replicate_1) 1.45%; (sheet LOPAC_screen_w_protease, LOPAC1280 at 5 µM, replicate 2, read-out: Replicate_2) 0.964%.

Under “sheet LOPAC_screen_w_protease, LOPAC1280 primary screen at 5 µM, with protease, mean of the two replicates”, `Cl.c1ccc(CN2CCC3(CCCc4ccccc43)CC2)cc1` [L-687,384 hydrochloride] returned a mean of 0.6815. Moreover, the Replicate_1 (sheet LOPAC_screen_w_protease, LOPAC1280 primary screen at 5 µM, with protease, replicate 1) stood at 0.6204. Besides, where the note is “sheet LOPAC_screen_w_protease, LOPAC1280 primary screen at 5 µM, with protease, replicate 2”, the Replicate_2 was found to be 0.7425.

Consider `COC(=O)[C@H]1[C@H]2C[C@H]3c4[nH]c5ccccc5c4CCN3C[C@H]2CC[C@@H]1O` [Rauwolscine hydrochloride], for which the inhibition at 5 µM is, setting by setting: (sheet LOPAC_screen_w_protease, primary screen with protease, compound at 5 µM, mean of two replicates, read-out: mean) 3.1%; (sheet LOPAC_screen_w_protease, primary screen with protease, compound at 5 µM, replicate 1, read-out: Replicate_1) 3.55%; (sheet LOPAC_screen_w_protease, primary screen with protease, compound at 5 µM, replicate 2, read-out: Replicate_2) 2.65%.

Consider `N.S=C(S)N1CCCC1` [Ammonium pyrrolidinedithiocarbamate], for which the “mean (LOPAC screen with protease)” value under setting [1] worked out at 72.0091. Besides, the “Replicate_1 (LOPAC screen with protease)” value under setting [2] is 73.369. For the same compound, under setting [3], the “Replicate_2 (LOPAC screen with protease)” value is 70.6492.

In turn, `COc1ccccc1CNCCCCCCNCCCCCCCCNCCCCCCNCc1ccccc1OC.Cl.Cl.Cl.Cl` [Methoctramine tetrahydrochloride] yielded a mean (sheet LOPAC_screen_w_protease, primary screen of LOPAC1280 at 5 µM with protease, mean of the two replicates) of 4.069. Where the note is “sheet LOPAC_screen_w_protease, primary screen of LOPAC1280 at 5 µM with protease, replicate 1”, this compound returned a Replicate_1 of 5.6561. Under “sheet LOPAC_screen_w_protease, primary screen of LOPAC1280 at 5 µM with protease, replicate 2”, this compound had a Replicate_2 of 2.482.

For `O=[N+]([O-])c1ccc(CSc2ncnc3c2ncn3[C@@H]2O[C@H](CO)[C@@H](O)[C@H]2O)cc1` [S-(4-Nitrobenzyl)-6-thioinosine], under setting [4], the mean turned out to be 4.84. In addition, the Replicate_1 under setting [5] is given as 5.452. Also, the Replicate_2 under setting [6] worked out at 4.228.

Turning to `CN(C)CCOC(c1ccccc1)c1ccccc1` [Diphenhydramine hydrochloride], the inhibition at 5 µM reads like this: under setting [7], 2.14%; under setting [8], 1.54%. Also, the “mean (LOPAC_screen_w_protease)” value under setting [9] is 1.841.

Take `Br.CN1CCc2cc(O)c(O)cc2C(c2ccccc2)C1` (stereo not drawn) [SKF 75670 hydrobromide]: the “mean (LOPAC screen with protease)” value under setting [1] came to 25.5455. The “Replicate_1 (LOPAC screen with protease)” value under setting [2] was determined as 25.015. For the same compound, under setting [3], the “Replicate_2 (LOPAC screen with protease)” value is given as 26.0759.

Turning to `CC(C)(C)NCC(O)c1ccc(O)c(CO)c1.CC(C)(C)NCC(O)c1ccc(O)c(CO)c1.O=S(=O)(O)O` (stereo not drawn) [Albuterol hemisulfate], the “mean (LOPAC_screen_w_protease)” value under setting [9] is on record as 2.078. Also, the “Replicate_1 (LOPAC_screen_w_protease)” value under setting [10] is reported as 2.563. Moreover, the “Replicate_2 (LOPAC_screen_w_protease)” value under setting [11] is 1.593.

For `O=c1c(-c2ccc(O)cc2)coc2cc(O)ccc12` [Daidzein], the inhibition at 5 µM came to 5.3% (read-out: Replicate_1), 1.03% (read-out: Replicate_2) and 3.16% (read-out: mean).

`COc1ccc2[nH]c(I)c(CCNC(C)=O)c2c1` [2-Iodomelatonin] came in with a mean under setting [4] of 5.613. The compound also returned a Replicate_1 under setting [5] of 6.946. The same compound returned a Replicate_2 under setting [6] of 4.28.

For `Cl.O=C(CCCN1CCC2(CC1)C(=O)N(CCc1ccc(N=C=S)cc1)CN2c1ccccc1)c1ccc(F)cc1`, under setting [4], the mean is 5.051. The compound further gave a Replicate_1 under setting [5] of 5.654. Besides, under setting [6], the Replicate_2 was 4.448.

Take `CC(C)[C@H](CO)Nc1nc(Nc2cccc(Cl)c2)c2ncn(C(C)C)c2n1` [Purvalanol A]: the inhibition at 5 µM is, setting by setting: (sheet LOPAC_screen_w_protease, primary screen with protease, mean of two replicates, read-out: mean) 2.33%; (sheet LOPAC_screen_w_protease, primary screen with protease, replicate 1, read-out: Replicate_1) 2.6%; (sheet LOPAC_screen_w_protease, primary screen with protease, replicate 2, read-out: Replicate_2) 2.06%.

With `Cl.Clc1ccc(N2CCN(Cc3c[nH]c4ncccc34)CC2)cc1` [L-745,870 hydrochloride], under setting [12], the “mean (LOPAC_screen_w_protease)” value was found to be 1.375. The “Replicate_1 (LOPAC_screen_w_protease)” value under setting [10] amounted to 2.129. Also, the “Replicate_2 (LOPAC_screen_w_protease)” value under setting [11] amounted to 0.6216.

Regarding `CCCCC[C@H](CC(=O)NO)C(=O)N[C@H](C(=O)N1CCC[C@H]1CO)C(C)C` [Actinonin], the inhibition at 5 µM under setting [7] was 1.42% and the inhibition at 5 µM under setting [8] was determined as 1.48%. Further, the “mean (LOPAC_screen_w_protease)” value under setting [12] was found to be 1.4498.

Consider `Cc1cnc(C(=O)NCCc2ccc(S(=O)(=O)NC(=O)NC3CCCCC3)cc2)cn1` [Glipizide], for which the inhibition at 5 µM came out at 10.3% (read-out: Replicate_1 (LOPAC screen with protease)), 3.17% (read-out: Replicate_2 (LOPAC screen with protease)) and 6.73% (read-out: mean (LOPAC screen with protease)).

These data come from paper PMC7587356, “High-Throughput Screening for Inhibitors of the SARS-CoV-2 Protease Using a FRET-Biosensor” (Molecules, 2020).
